Values joined by “and” are separate entries in the source; they are usually repeats but may differ in a detail not shown here. Equal values may be shown once. Read-outs that look alike come from different tables or passages of the source.
Experiments:
[1] = tested on: B16 mouse melanoma cells; experiment: Melanogenesis in B16 monolayer cultures (melanin normalised to total protein); format: cell-based; conditions: for Normalised melanin: 72 hours; for Inhibition of melanin production (in words): B16 monolayer cultures
Description: B16 mouse melanoma cells were cultured in Eagle's minimal essential medium (EMEM) supplemented with 10% foetal calf serum (FCS) and 2 mM L-glutamine at 37° C., 5% CO2 in T175 tissue culture flasks and were sub-cultured twice weekly using trypsin in EDTA. For assay, 25 000 cells per well in 500 μl volume were seeded to a 48 well plate and adhered overnight. The following morning standard culture media was replaced by EMEM, 10% FCS, 4 mM L-glutamine (500 μl) and test actives added. Cells were then incubated for 72 hours. At 72 after which the supernatants were removed and analysed for melanin content by spectrophometry at 450 nm against a reference standard curve. The B16 cell monolayer was dissolved in Triton™/PBS at 4° C. for 20 minutes, centrifuged at 13 000 rpm for 5 minutes at 4° C. and analysed for total protein content using a standard bicinchoninic acid assay (BCA) assay against a reference standard curve. Melanin results were normalised to total protein.
Each test active was applied in DMSO to n=3 cultures.

[2] = tested on: B16 melanoma cells; conditions: cited from earlier work
[3] = tested on: normal human melanocytes (NHM); experiment: Growth and morphology of normal human melanocytes in monolayer culture (light microscopy); format: cell-based; conditions: 1 μM
Description: Primary human melanocytes were obtained from Invitrogen Cascade Biologics (HEMn-DP) and grown in Cascade melanocyte media (M-254CF-500+human melanocyte growth supplement (HMGS) supplement containing phorbol myristate acetate (PMA)) according to the manufacturer's instructions. Once established, cultures were routinely grown in T175 tissue culture flasks and could generally be passaged for use up to six (P6) or seven (P7) times. Once the cells reached about 70% confluence they were treated with trypsin, spun down and re-suspended in an appropriate volume of media ready for plating out. Cells seeded at 2×10^5 cells per well in a 6-well plate and incubated in 2 ml medium per well. Cells were allowed 16 hours to settle on the cover-slips before addition of treatments. Cells were treated for 5 days with DMSO vehicle or test actives dissolved in DMSO and light microscope images captured.
NHMs grown in monolayer cultures were treated with 1 μM ketoconazole for 5 days and assessed by light microscopy.

[4] = In-vitro delivery of ketoconazole into human skin (diffusion cells, tape stripping); format: in vitro ADME
Description: This study quantified the in-vitro human skin penetration after application of a cream formulation containing 2% (w/w) ketoconazole (Daktarin™ Gold). Eight diffusion cells were prepared (using female abdominal skin from three donors) plus three undosed control cells (for assay validation purposes). Epidermal membranes were used and integrity assessed by measuring electrical resistance. Permeation of active was measured over 24 hours following application of a target 5 mg/cm2 dose. Suitable liquid chromatography analytical assays were developed, with active peaks separated from formulation, skin and tape strip derived peaks.
Distribution within the skin at 24 hours was determined by measuring the levels of active within the stratum corneum (tape strips) and the epidermis plus any remaining lower stratum corneum (following tape stripping). The skin was wiped prior to tape stripping to remove active remaining at the surface. Levels in the donor chamber sealing grease and on the donor chambers were also measured (donor chamber wash).

[5] = tested on: B16 F10 cells (mouse melanoma cell line); conditions: 3 days; for Average μg melanin/cell (4 tests): media control 0.00030445, DMSO control 0.00028774; for % vehicle control (melanin per cell): media control 100, DMSO control 94.51056836
Description: B16 F10 cells (mouse melanoma cell line) were obtained from ATCC and grown in Lonza Biowhittaker BE12-662F media. Trypsin in ethylenediaminetetraacetic acid (EDTA) (Sigma T3924) and Dulbecco's Phosphate Buffered Saline (DPBS) (Sigma D8537) were used to split the cells. Plates were set up at a concentration of 2.5×10^4 cells per well in 48 well plates in Phenol Red free media (Sigma D1145).
After overnight incubation, media was removed and media with sulforaphane (available from Sigma-Aldrich Company Limited as at least 95% L-sulforaphane) in DMSO and ketoconazole in DMSO solutions were added. 500 μl of the media and solutions were added to 4 wells of a 48 well plate and the plates incubated at 37° C. for a further 3 days. Thereafter the melanin concentration and cell numbers were measured.
Melanin concentration was measured by making up standards each day and pipetting 100 μl of each standard in duplicate onto Greiner plates. For the blank plate Phenol Red free media was used. 100 μl from each well was also pipetted in duplicate onto Greiner plates and the plates read on a Dynex plate reader at 450 nm.
Cell numbers were measured by washing the wells twice with phosphated buffer solution (PBS). Then 1 ml of trypsin EDTA diluted in PBS at 1:10 v/v was added to each well and the wells observed for cell detachment. All media from each well was then collected the media assayed by adding 100 μl of the media to 9.9 ml of Coulter Isoton II diluent. Cell numbers were assessed using the Z1 Coulter Particle Counter.

[6] = tested on: MelanoDerm™ cultures (pigmented 3D-Living Skin Equivalent model); experiment: Melanogenesis in MelanoDerm cultures (extracted melanin normalised to protein)
[7] = tested on: MelanoDerm™ cultures; experiment: Histological analysis of MelanoDerm cultures (Masson-Fontana staining, MART-1 immuno-staining); conditions: 1 μM, 14 days, versus DMSO control
[8] = 20 μM, individual cultures, second DMSO control 0.187, 0.188, 0.172
[9] = cream with 2% (w/w) ketoconazole (Daktarin Gold), 5 mg/cm2, 24 hours, n = 8
[10] = stratum corneum tape strips, cream with 2% (w/w) ketoconazole, 5 mg/cm2, 24 hours, n = 8

c1c[nH]cn1 [imidazole]
Normalised melanin [1, 8]: 0.180 μg/mg protein and 0.231 μg/mg protein and 0.240 μg/mg protein | Inhibition of melanin production (in words) ([1]; other azoles): did not effectively inhibit melanin production

c1cocn1 [oxazole]
Normalised melanin [1, 8]: 0.217 μg/mg protein and 0.210 μg/mg protein and 0.185 μg/mg protein | Inhibition of melanin production (in words) ([1]; other azoles): did not effectively inhibit melanin production

c1cscn1 [thiazole]
Normalised melanin [1, 8]: 0.228 μg/mg protein and 0.255 μg/mg protein and 0.236 μg/mg protein | Inhibition of melanin production (in words) ([1]; other azoles): did not effectively inhibit melanin production

Clc1ccc(COC(Cn2ccnc2)c2ccc(Cl)cc2Cl)c(Cl)c1 (centres unmarked) [miconazole]
Cellular viability ([2]; accompanying the melanin decrease): decreased cellular viability | Melanin content ([2]; compared with untreated cells): dose dependently decreased | Tyrosinase activity ([2]; compared with untreated cells): dose dependently decreased

CC(=O)N1CCN(c2ccc(OC[C@H]3CO[C@](Cn4ccnc4)(c4ccc(Cl)cc4Cl)O3)cc2)CC1 (racemic) [ketoconazole]
Normalised melanin ([1]; 5 μM, n=3 cultures, first DMSO control 0.186 ± 0.021): 0.173 ± 0.032 μg/mg protein | Normalised melanin ([1]; 20 μM, n=3 cultures, first DMSO control 0.186 ± 0.021): 0.004 ± 0.001 μg/mg protein | Normalised melanin ([1]; 50 μM, n=3 cultures, first DMSO control 0.186 ± 0.021): 0.007 ± 0.003 μg/mg protein | Inhibition of melanin production (in words) ([1]; at 1 μM as printed): very effectively inhibits melanin production | Effect on viability of monolayer human melanocytes [3]: no detectable effect on the viability | Effect on NHM morphology or proliferation ([3]; 5 days, light microscopy, FIG. 3): no evidence that treatment had an adverse effect on NHM morphology or proliferation | Proportion of bipolar cells (normal cells) ([3]; 5 days, versus control, FIG. 3): practically identical to the control | Ketoconazole (% recovered), Donor chamber [4, 9]: 4.00 ± 1.26 % recovered | Ketoconazole (% recovered), Overall recovery [4, 9]: 99.4 ± 1.2 % recovered | Ketoconazole (% recovered), Permeation chamber [4, 9]: 3.49 ± 0.26 % recovered | Ketoconazole (% recovered), Surface of skin [4, 9]: 83.6 ± 2.4 % recovered | Delivery into human skin (in words) ([4]; cream with 2% (w/w) ketoconazole, 24 hours): low but adequate delivery into human skin | Ketoconazole (% recovered), Epidermis ([4]; includes any stratum corneum remaining after tape stripping, cream with 2% (w/w) ketoconazole, 5 mg/cm2, 24 hours, n = 8): 2.02 ± 0.74 % recovered | Ketoconazole (% recovered), Strip 1 ([4]; stratum corneum tape strip, cream with 2% (w/w) ketoconazole, 5 mg/cm2, 24 hours, n = 8): 4.92 ± 2.03 % recovered | Ketoconazole (% recovered), Strips 2-3 [4, 10]: 0.858 ± 0.255 % recovered | Ketoconazole (% recovered), Strips 4-6 [4, 10]: 0.318 ± 0.062 % recovered | Ketoconazole (% recovered), Strips 7-10 [4, 10]: 0.192 ± 0.046 % recovered | Average μg melanin/cell (4 tests) ([5]; 1 μM): 0.0002916 μg melanin/cell | % vehicle control (melanin per cell) ([5]; 1 μM): 95.76 % vehicle control | Effect on viability of epidermal cultures ([6]; 1 μM): no detectable effect on the viability | Normalised melanin ([6]; 1 μM, 14 days, individual cultures, DMSO control 74.560, 103.845, 90.333): 58.573 μg/mg protein and 59.276 μg/mg protein and 57.292 μg/mg protein | Levels of extractable melanin (in words) ([6]; 1 μM, 14 days, versus DMSO control): consistently reduced the levels of extractable melanin | Inhibition of melanin production (in words) ([6]; MelanoDerm cultures, at 1 μM): very effectively inhibits melanin production | Melanin content of the basal melanocytes, Masson-Fontana staining ([7]; FIG. 1): marked effect on the melanin content of the basal melanocytes | Presence of melanocytes, MART-1 immuno-staining ([7]; FIG. 2): not due to the elimination of melanocytes

OC(Cn1cncn1)(Cn1cncn1)c1ccc(F)cc1F [flucoazole, fluconazole]
Normalised melanin [1, 8]: 0.232 μg/mg protein and 0.214 μg/mg protein and 0.229 μg/mg protein | Inhibition of melanin production (in words) ([1]; other azoles): did not effectively inhibit melanin production

C[S+]([O-])CCCCN=C=S [L-sulforaphane, sulforaphane]
Average μg melanin/cell (4 tests) ([5]; 10 μM): 0.0002645 μg melanin/cell | % vehicle control (melanin per cell) ([5]; 10 μM): 86.89 % vehicle control

— patent US20140030201A1, “A SKIN LIGHTENING COMPOSITION” (priority 2010, published 2014)
